How the values were obtained:
[1] = Relative solubility by turbidity in aqueous buffers (pH 1.5, 4.5, 6.8, 7.4); format: physicochemical; settings: for turbidity threshold (L, M, H) 1.4: pH 1.5 (SGF); for turbidity threshold (L, M, H) 4.5: pH 4.5 (SIF); for turbidity threshold (L, M, H) 6.8: pH 6.8 (SIF); for turbidity threshold (L, M, H) 7.4: pH 7.4 (HEPES)
Experimental: As an indication of relative solubility, the turbidity of compounds in aqueous solutions is assessed. To assess possible compound properties in different physiological compartments, such as stomach, intestine, and blood, a series of aqueous buffers with varying pH is used. Thus each compound is diluted into four different physiologically relevant buffers and solution turbidity is measured by spectrophotometry.
Compounds are dissolved at a concentration of 25 mM in dimethyl sulfoxide, then serially diluted 1:1 into a 96 well plate, diluting 10 times in pure dimethyl sulfoxide, with the final well of each row a dimethyl sulfoxide blank. In an assay plate, 99 μL of appropriate buffer is added to each well, and 1 μL of each sample dilution is added to the buffer, achieving a range of final total concentrations in aqueous solutions having different pH. The buffers used are Simulated Gastric Fluid (SGF-pH 1.5) 0.5M NaCl, pH 1.5; Simulated Intestinal fluid (SIF-pH 4.5 and pH 6.8) 0.05M NaH2PO4, pH 4.5 and 6.8; and Hepes Buffer (HEPES-pH 7.4) 10 mM HEPES, 150 mM NaCl, pH 7.4. Control compounds pyrene, estriol and propranolol HCl are also assessed. Plates are spun and then mixed for 1 minute, and the absorbance is read using a Tecan Safire II to read wavelengths in the visible range (490, 535, and 650 nm) at four locations per well, reflecting the degree of turbidity present. The average optical density for each wavelength in each well is graphed vs. compound concentration, and the concentration at which the curve crosses a threshold O.D. of 0.01 for each wavelength is reported as the endpoint turbidity assay result. The average of the three wavelengths is used to compare turbidity of compounds.

BCR-KIT BaF3 cells = molecular target: T1, BCR-KIT BaF3 cells (Homo sapiens, UniProt P10721); assay: BaF3 BCR-KIT cell proliferation assay (ATPlite); format: cell-based; settings: read-out: Inhibition of Cell Proliferation IC50, BCR/BaF3 Kit
T1 construct: fused on or other part: P11274 (Breakpoint cluster region protein)
Experimental: Compounds are assessed in a variety of cell based assays. For example BaF3 cells engineered with any of BCR-FMS, BCR-KIT, BCR-FLT3, BCR-NTRK1, BCR-NTRK2, and BCR-NTRK3, are used in cell proliferation assays to assess inhibitory activity of Fms, Kit, Flt-3, TrkA, TrkB, and TrkC, respectively. An MV-4-11 (leukemia) cell proliferation assay is used to assess inhibitory activity in Flt-3, and SKNSH (human neuroblastoma) cell proliferation assay is used to assess efficacy of Fms/Trk inhibitors. Additional cells may be assayed similarly to assess the efficacy of Fms/Trk inhibitors, such as MiaPaCa (human pancreatic cancer) and Capan-1 (human pancreatic carcinoma) cells. Reagent and assay conditions are as follows: • BaF3 cells: • Maintained in RPMI containing 10% FBS, 1% PenStrep, 1% NEAA, and 1% L-Glutamine, supplemented with 1 mg/mL G418 and 5% WEHI-CM (or recombinant murine IL-3). • Confluent cells are split 1:50 to 1:100 every 3-4 days. • MV-4-11 cells: • Maintained in Iscove's Modified Dulbecco's Medium containing 10% FBS. • Confluent cells are split 1:4 every 3-4 days. • SKNSH cells: RPMI containing 10% FBS. On day 1, cells are counted, then centrifuged in a conical tube for 5 minutes at 1000 rpm. The supernatant is removed and cells are re-suspended as follows: • BaF3: resuspend in growth media +1 mg/mL G418 (without WEHFIL-3) to 2×10^5 cells/mL. • MV-4-11: resuspend in growth media to 5×10^5 cells/mL. • SKNSH: resuspend in growth media to 2×10^4 cells/mL. The cells are plated (50 μL, 150 μL for SKNSH cells) in each well of a 96-well dish (Corning 3610) and incubated at 37° C. in 5% CO2 overnight, cells plated to a final concentration of cells as follows: • BaF3: 10,000 cells per well. • MV-4-11: 25,000 cells per well. • SKNSH: 3,000 cells per well. On day 2, compound at a maximum concentration of 5 mM is serially diluted 1:3 for a total of 8 point titration with DMSO as a control. A 1 μL aliquot of each dilution point is added to 249 μL growth media and 50 μL is added to a well containing cells, providing 10 μM compound for the maximum concentration point. The cells are incubated for 3 days at 37° C. in 5% CO2. For SKNSH cells, a 0.75 μL aliquot of appropriate dilution in DMSO is added to 150 μL of cells. On day 5, ATPlite 1 step Luminescence Assay System (Perkin Elmer #6016739) is brought to room temperature along with the cell cultures. ATPlite is added to each well as follows: • BaF3: 25 μL per well. • MV-4-11: 40 μL per well. • SKNSH: 20 μL per well. The cells are incubated at room temperature for 10 minutes, then luminescence is read on Safire reader. The measured luminescence correlates directly with cell number, such that the reading as a function of compound concentration is used to determine the IC50 value.
It is understood that the results of these assays may vary as assay conditions are varied. Inhibition levels determined under the conditions described herein represent a relative activity for the compounds tested under the specific conditions employed. The cell based assays are likely to show variability due to the complexity of the system and the sensitivity thereof to any changes in the assay conditions. […] Results for compounds that are tested and show substantially no inhibition below the highest tested concentration are represented as “-” in the tables below. In some instances, the compounds were not tested in all of the assays, or assay results were not valid, as indicated by NA in the tables below.

T1 sequence (P10721 589-937): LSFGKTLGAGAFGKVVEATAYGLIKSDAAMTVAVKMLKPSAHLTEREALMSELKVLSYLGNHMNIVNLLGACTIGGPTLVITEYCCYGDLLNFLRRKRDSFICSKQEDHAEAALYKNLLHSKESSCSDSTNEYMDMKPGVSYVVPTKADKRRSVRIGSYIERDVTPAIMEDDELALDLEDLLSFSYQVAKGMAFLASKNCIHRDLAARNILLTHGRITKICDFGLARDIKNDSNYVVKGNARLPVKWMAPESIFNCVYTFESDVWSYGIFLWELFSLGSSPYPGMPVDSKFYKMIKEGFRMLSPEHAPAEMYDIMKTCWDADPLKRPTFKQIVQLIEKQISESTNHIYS

Structure (SMILES) | IC50 (BCR-KIT BaF3 cells) | turbidity threshold (L, M, H) 1.4 [1] | turbidity threshold (L, M, H) 4.5 [1] | turbidity threshold (L, M, H) 6.8 [1] | turbidity threshold (L, M, H) 7.4 [1]
COc1ccc(Nc2ccc(C(=O)c3c[nH]c4ncnc(N5CCOCC5)c34)c(F)n2)cn1 [Compound P-4070, [2-fluoro-6-[(6-methoxy-3-pyridyl)amino]-3-pyridyl]-(4-morpholino-7H-pyrrolo[2,3-d]pyrimidin-5-yl)methanone] | > 1000 nM | H (high solubility if the threshold concentration is >250 μm) | M (moderate solubility if the threshold concentration is 31.3 μM to 250 μM) | M (moderate solubility if the threshold concentration is 31.3 μM to 250 μM) | M (moderate solubility if the threshold concentration is 31.3 μM to 250 μM)
COc1ccc(Nc2ccc(C(=O)c3c[nH]c4ncnc(N[C@@H](C)c5ccc(F)cc5)c34)c(F)n2)cn1 [Compound P-4072, [2-fluoro-6-[(6-methoxy-3-pyridyl)amino]-3-pyridyl]-[4-[[(1S)-1-(4-fluorophenyl)ethyl]amino]-7H-pyrrolo[2,3-d]pyrimidin-5-yl]methanone] | < 1000 nM | M (moderate solubility if the threshold concentration is 31.3 μM to 250 μM) | L (low solubility if the threshold concentration is <31.3 μM) | L (low solubility if the threshold concentration is <31.3 μM) | L (low solubility if the threshold concentration is <31.3 μM)
COc1ccc(Nc2ccc(C(=O)c3c[nH]c4ncnc(NCC5CCCO5)c34)c(F)n2)cn1 (stereo not drawn) [Compound P-4073, [2-fluoro-6-[(6-methoxy-3-pyridyl)amino]-3-pyridyl]-[4-(tetrahydrofuran-2-ylmethylamino)-7H-pyrrolo[2,3-d]pyrimidin-5-yl]methanone] | < 1000 nM | M (moderate solubility if the threshold concentration is 31.3 μM to 250 μM) | L (low solubility if the threshold concentration is <31.3 μM) | L (low solubility if the threshold concentration is <31.3 μM) | L (low solubility if the threshold concentration is <31.3 μM)
CCN1CCC(Nc2ncnc3[nH]cc(C(=O)c4ccc(Nc5ccc(OC)nc5)nc4F)c23)CC1 [Compound P-4074, [4-[(1-ethyl-4-piperidyl)amino]-7H-pyrrolo[2,3-d]pyrimidin-5-yl]-[2-fluoro-6-[(6-methoxy-3-pyridyl)amino]-3-pyridyl]methanone] | < 1000 nM | H (high solubility if the threshold concentration is >250 μm) | M (moderate solubility if the threshold concentration is 31.3 μM to 250 μM) | M (moderate solubility if the threshold concentration is 31.3 μM to 250 μM) | M (moderate solubility if the threshold concentration is 31.3 μM to 250 μM)

Second part, led by results:

IC50 (BCR-KIT BaF3 cells) | Structure (SMILES) | turbidity threshold (L, M, H) 1.4 [1] | turbidity threshold (L, M, H) 4.5 [1] | turbidity threshold (L, M, H) 6.8 [1] | turbidity threshold (L, M, H) 7.4 [1]
< 10 nM | COc1ccc(Nc2ccc(C(=O)c3c[nH]c4ncnc(NC(C)C)c34)c(F)n2)cn1 [Compound P-4066, [2-fluoro-6-[(6-methoxy-3-pyridyl)amino]-3-pyridyl]-[4-(isopropylamino)-7H-pyrrolo[2,3-d]pyrimidin-5-yl]methanone] | M (moderate solubility if the threshold concentration is 31.3 μM to 250 μM) | L (low solubility if the threshold concentration is <31.3 μM) | L (low solubility if the threshold concentration is <31.3 μM) | M (moderate solubility if the threshold concentration is 31.3 μM to 250 μM)
< 100 nM | COc1ccc(Nc2ccc(C(=O)c3c[nH]c4ncnc(NCC5CC5)c34)c(F)n2)cn1 [Compound P-4067, [4-(cyclopropylmethylamino)-7H-pyrrolo[2,3-d]pyrimidin-5-yl]-[2-fluoro-6-[(6-methoxy-3-pyridyl)amino]-3-pyridyl]methanone] | H (high solubility if the threshold concentration is >250 μm) | M (moderate solubility if the threshold concentration is 31.3 μM to 250 μM) | M (moderate solubility if the threshold concentration is 31.3 μM to 250 μM) | M (moderate solubility if the threshold concentration is 31.3 μM to 250 μM)
< 100 nM | CCCNc1ncnc2[nH]cc(C(=O)c3ccc(Nc4ccc(OC)nc4)nc3F)c12 [Compound P-4068, [2-fluoro-6-[(6-methoxy-3-pyridyl)amino]-3-pyridyl]-[4-(propylamino)-7H-pyrrolo[2,3-d]pyrimidin-5-yl]methanone] | H (high solubility if the threshold concentration is >250 μm) | M (moderate solubility if the threshold concentration is 31.3 μM to 250 μM) | M (moderate solubility if the threshold concentration is 31.3 μM to 250 μM) | M (moderate solubility if the threshold concentration is 31.3 μM to 250 μM)
< 100 nM | COc1ccc(Nc2ccc(C(=O)c3c[nH]c4ncnc(NCc5ccc(C(F)(F)F)nc5)c34)c(F)n2)cn1 [Compound P-4071, [2-fluoro-6-[(6-methoxy-3-pyridyl)amino]-3-pyridyl]-[4-[[6-(trifluoromethyl)-3-pyridyl]methylamino]-7H-pyrrolo[2,3-d]pyrimidin-5-yl]methanone] | M (moderate solubility if the threshold concentration is 31.3 μM to 250 μM) | M (moderate solubility if the threshold concentration is 31.3 μM to 250 μM) | M (moderate solubility if the threshold concentration is 31.3 μM to 250 μM) | M (moderate solubility if the threshold concentration is 31.3 μM to 250 μM)
< 100 nM | COc1ccc(Nc2ccc(C(=O)c3c[nH]c4ncnc(NC5CCCC5)c34)c(F)n2)cn1 [Compound P-4075, [4-(cyclopentylamino)-7H-pyrrolo[2,3-d]pyrimidin-5-yl]-[2-fluoro-6-[(6-methoxy-3-pyridyl)amino]-3-pyridyl]methanone] | M (moderate solubility if the threshold concentration is 31.3 μM to 250 μM) | L (low solubility if the threshold concentration is <31.3 μM) | L (low solubility if the threshold concentration is <31.3 μM) | L (low solubility if the threshold concentration is <31.3 μM)

From US8901118B2, “Compounds and methods for kinase modulation, and indications therefor” (Plexxikon Inc., priority 2010, dated 2014)
